Source: patent publication US6730694B1, “sPLA2 inhibitors” (Eli Lilly and Company, priority 2003, dated 2004)

How the values were obtained:
[1] = target: T1, recombinant human secreted phospholipase A2 (Homo sapiens, UniProt P14555); assay: Chromogenic assay of recombinant human secreted phospholipase A2 inhibition; assay type: biochemical; conditions: diheptanoyl thio-PC substrate, pH 7.5, 40° C., 30 minutes, absorbance at 405 nanometers; read-out: Inhibition of human secreted PLA2 IC50 ± mean deviation (3-4 tests)
T1 sequence (P14555 21-144): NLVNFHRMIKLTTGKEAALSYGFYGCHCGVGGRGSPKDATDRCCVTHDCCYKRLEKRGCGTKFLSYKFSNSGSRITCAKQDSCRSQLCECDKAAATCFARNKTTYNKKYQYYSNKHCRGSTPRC
Source text: The following chromogenic assay procedure was used to identify and evaluate inhibitors of recombinant human secreted phospholipase A2. The assay described herein has been adapted for high volume screening using 96 well microtiter plates. A general description of this assay method is found in the article, “Analysis of Human Synovial Fluid Phospholipase A2 on Short Chain Phosphatidylcholine-Mixed Micelles: Development of a Spectrophotometric Assay Suitable for a Microtiterplate Reader”, by Laure J. Reynolds, Lori L. Hughes, and Edward A Dennis, Analytical Biochemistry, 204, pp. 190-197, 1992 (the disclosure of which is incorporated herein by reference):
Adjust pH to 4.5 with acetic acid […]
A measured volume of racemic dipheptanoyl thio PC supplied in chloroform at a concentration of 100 mg/ml is taken to dryness and redissolved in 10 millimolar […]
5. Read absorbance of wells at 405 nanometers with an automatic plate reader.
All compounds were tested in triplicate. […] Compounds initially found to be active were reassayed to confirm their activity and, if sufficiently active, IC50 values were determined. […] In all cases, % inhibition measured at 405 nanometers generated by enzyme reactions containing inhibitors relative to the uninhibited control reactions was determined. […] IC50 values were determined by plotting log concentration versus inhibition values in the range from 10-90% inhibition.

An IC50 [1] of 5.5 µM and a melting point of 169 to 172 °C were found for `CCc1c(C(=O)C(N)=O)c2ccsc2n1Cc1ccccc1` [Example 1, 2-(6-Benzyl-5-ethyl-6H-thieno[2,3-b]pyrrol-4-yl)-2-oxoacetamide] in this work.
